Measurements published in ChEMBL document CHEMBL1201862, “PubChem BioAssay data set” (2004).
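All cell lines were grown in 96-well plates and treated with compound for 48 hours. Abbreviation: GI50, concentration required for 50% inhibition of growth.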 Active and inactive are the calls of the source. Cut-off read from the data, not from the text of the source: active = GI50 up to about 1.1 µM and inactive = higher.

Experiments:
Experiment in all cases: NCI-60 cell line screen, 48 h
MDA-MB-231 = test system: MDA-MB-231
SNB-75 = test system: SNB-75
HCT-15 = test system: HCT-15
SF-268 = test system: SF-268
RPMI-8226 = test system: RPMI-8226
LOX IMVI = test system: LOX IMVI
SNB-19 = test system: SNB-19
OVCAR-5 = test system: OVCAR-5
SK-MEL-28 = test system: SK-MEL-28
K562 = test system: K562
SK-MEL-5 = test system: SK-MEL-5
RXF 393 = test system: RXF 393
TK-10 = test system: TK-10
COLO 205 = test system: COLO 205
NCI-H522 = test system: NCI-H522
T47D = test system: T47D
NCI-H23 = test system: NCI-H23
UO-31 = test system: UO-31
A498 = test system: A498
Malme-3M = test system: Malme-3M

Row | Compound | GI50 (MDA-MB-231) | GI50 (SNB-75) | GI50 (HCT-15) [µM] | GI50 (SF-268) | GI50 (RPMI-8226) | GI50 (LOX IMVI) | GI50 (SNB-19) | GI50 (OVCAR-5) | GI50 (SK-MEL-28) | GI50 (K562) | GI50 (SK-MEL-5) | GI50 (RXF 393) | GI50 (TK-10) | GI50 (COLO 205) | GI50 (NCI-H522) | GI50 (T47D) | GI50 (NCI-H23) | GI50 (UO-31) | GI50 (A498) | GI50 (Malme-3M)
1 | Cc1ccc(-c2nc(-c3cnccn3)n(C3OC(CO)C(O)C(O)C3O)n2)cc1 (centres undefined) | > 100 µM (inactive) | > 100 µM (inactive) | > 100 | > 100 µM (inactive) | > 100 µM (inactive) | > 100 µM (inactive) | > 100 µM (inactive) | > 100 µM (inactive) | > 100 µM (inactive) | > 100 µM (inactive) | > 100 µM (inactive) | > 100 µM (inactive) | > 100 µM (inactive) | > 100 µM (inactive) | > 100 µM (inactive) | > 100 µM (inactive) | > 100 µM (inactive) | > 100 µM (inactive) | – | –
2 | CC(C)CCNC(=O)C(CC(C)C)NC(=O)[C@H]1O[C@@H]1C(=O)O (some centres undefined) | > 100 µM (inactive) | > 100 µM (inactive) | > 100 | > 100 µM (inactive) | – | – | > 100 µM (inactive) | > 100 µM (inactive) | > 100 µM (inactive) | > 100 µM (inactive) | > 100 µM (inactive) | – | – | > 100 µM (inactive) | > 100 µM (inactive) | > 100 µM (inactive) | > 100 µM (inactive) | > 100 µM (inactive) | > 100 µM (inactive) | > 100 µM (inactive)
3 | Cc1cc(S(=O)(=O)N/C(=N/N)NCCc2ccccc2)c(S)cc1Cl | 29.6 µM (inactive) | 25.6 µM (inactive) | 19.2 | 28.7 µM (inactive) | 32.7 µM (inactive) | 29.6 µM (inactive) | 18.1 µM (inactive) | 19.5 µM (inactive) | 20.7 µM (inactive) | 30.6 µM (inactive) | 19.2 µM (inactive) | 21.7 µM (inactive) | 39.4 µM (inactive) | 49.3 µM (inactive) | 29.6 µM (inactive) | 18.1 µM (inactive) | – | 27.6 µM (inactive) | – | 22 µM (inactive)
4 | CCCCCCCCCCCCCC[S+](C)C | 2.23 µM (inactive) | 1.58 µM (inactive) | 3.93 | 1.51 µM (inactive) | 0.601 µM (active) | 1.79 µM (inactive) | 1.4 µM (inactive) | 2.88 µM (inactive) | 2.58 µM (inactive) | 1.4 µM (inactive) | 1.53 µM (inactive) | 1.2 µM (inactive) | 1.71 µM (inactive) | 1.62 µM (inactive) | 1.75 µM (inactive) | 2.1 µM (inactive) | 1.5 µM (inactive) | 3.07 µM (inactive) | – | –
5 | Cc1ccccc1NC(=O)Cc1csc2[n+]1C(=O)/C(=C/c1ccc([N+](=O)[O-])cc1)S2 | 37.5 µM (inactive) | 19.3 µM (inactive) | 24.3 | – | – | 38.5 µM (inactive) | 26.4 µM (inactive) | 37.8 µM (inactive) | 37.7 µM (inactive) | – | 27.4 µM (inactive) | – | 19.9 µM (inactive) | 36 µM (inactive) | – | 29.2 µM (inactive) | 23.9 µM (inactive) | 18.4 µM (inactive) | – | –
6 | Cc1cc(NS(=O)(=O)c2ccc(/N=N/c3c(Nc4ccccc4)nn(-c4ccc(S(=O)(=O)Nc5ccncn5)cc4)c3C)cc2)no1 | > 100 µM (inactive) | > 100 µM (inactive) | > 100 | – | – | > 100 µM (inactive) | > 100 µM (inactive) | > 100 µM (inactive) | > 100 µM (inactive) | 86.1 µM (inactive) | > 100 µM (inactive) | – | > 100 µM (inactive) | > 100 µM (inactive) | > 100 µM (inactive) | > 100 µM (inactive) | > 100 µM (inactive) | > 100 µM (inactive) | – | > 100 µM (inactive)
